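Tested at 5 concentrations; 48 h exposure; 96-well plates; endpoints linearly interpolated, else capped at highest concentration. GI50 is the concentration that inhibits growth by half. TGI is the concentration that stops growth completely.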
Tests used:
Assay in all cases: NCI tumour cell line growth inhibition, 48 h
SF-539 CNS = test system: SF-539 CNS
PC-3 prostate = test system: PC-3 prostate
OVCAR-3 ovarian = test system: OVCAR-3 ovarian
SK-MEL-2 melanoma = test system: SK-MEL-2 melanoma
HOP-92 NSCLC = test system: HOP-92 NSCLC
K-562 leukemia = test system: K-562 leukemia
SNB-19 CNS = test system: SNB-19 CNS
MDA-MB-231 breast = test system: MDA-MB-231 breast
OVCAR-4 ovarian = test system: OVCAR-4 ovarian
CAKI-1 renal = test system: CAKI-1 renal
T-47D breast = test system: T-47D breast
A549 NSCLC = test system: A549 NSCLC
RPMI-8226 leukemia = test system: RPMI-8226 leukemia
HS 578T breast = test system: HS 578T breast
HCC-2998 colon = test system: HCC-2998 colon
TK-10 renal = test system: TK-10 renal
NCI-H522 lung = test system: NCI-H522 lung
CCRF-CEM leukemia = test system: CCRF-CEM leukemia
SF-295 CNS = test system: SF-295 CNS
UACC-257 melanoma = test system: UACC-257 melanoma
EKVX NSCLC = test system: EKVX NSCLC
ACHN renal = test system: ACHN renal
NCI/ADR-RES ovarian = test system: NCI/ADR-RES ovarian
786-0 renal = test system: 786-0 renal
HOP-62 NSCLC = test system: HOP-62 NSCLC
UO-31 renal = test system: UO-31 renal
SW-620 colon = test system: SW-620 colon
NCI-H226 lung = test system: NCI-H226 lung
MDA-MB-435 = test system: MDA-MB-435
OVCAR-5 ovarian = test system: OVCAR-5 ovarian
LOX IMVI melanoma = test system: LOX IMVI melanoma
MCF7 breast = test system: MCF7 breast
NCI-H23 lung = test system: NCI-H23 lung
SNB-75 CNS = test system: SNB-75 CNS
MOLT-4 leukemia = test system: MOLT-4 leukemia
HCT-116 colon = test system: HCT-116 colon
HL-60(TB) leukemia = test system: HL-60(TB) leukemia
IGROV1 ovarian = test system: IGROV1 ovarian
SF-268 CNS = test system: SF-268 CNS
RXF 393 renal = test system: RXF 393 renal

COc1cccc(C2CC(=O)c3cc(N4CCCC4)ccc3N2)c1 (centres undefined)
TGI (SF-539 CNS): > 100 µM | TGI (PC-3 prostate): > 100 µM | TGI (OVCAR-3 ovarian): > 100 µM | GI50 (SK-MEL-2 melanoma): 64.5 µM | TGI (SK-MEL-2 melanoma): > 100 µM | GI50 (HOP-92 NSCLC): > 100 µM | TGI (HOP-92 NSCLC): > 100 µM | TGI (K-562 leukemia): > 100 µM | TGI (SNB-19 CNS): > 100 µM | GI50 (MDA-MB-231 breast): 4.66 µM | TGI (MDA-MB-231 breast): > 100 µM | TGI (OVCAR-4 ovarian): > 100 µM | TGI (CAKI-1 renal): > 100 µM | TGI (T-47D breast): > 100 µM | TGI (A549 NSCLC): > 100 µM | TGI (RPMI-8226 leukemia): > 100 µM | TGI (HS 578T breast): > 100 µM | GI50 (HCC-2998 colon): 0.0146 µM | TGI (HCC-2998 colon): 0.389 µM | GI50 (TK-10 renal): 45.5 µM | TGI (TK-10 renal): > 100 µM | TGI (NCI-H522 lung): 0.0624 µM | TGI (CCRF-CEM leukemia): > 100 µM | TGI (SF-295 CNS): > 100 µM | TGI (UACC-257 melanoma): > 100 µM | TGI (EKVX NSCLC): > 100 µM | TGI (ACHN renal): 34.8 µM | TGI (NCI/ADR-RES ovarian): 0.0491 µM | TGI (786-0 renal): > 100 µM | TGI (HOP-62 NSCLC): > 100 µM | TGI (UO-31 renal): 65.8 µM | TGI (SW-620 colon): > 100 µM | TGI (NCI-H226 lung): 36.3 µM | TGI (MDA-MB-435): 1.49 µM | GI50 (OVCAR-5 ovarian): > 100 µM | TGI (OVCAR-5 ovarian): > 100 µM | TGI (LOX IMVI melanoma): > 100 µM | GI50 (MCF7 breast): 0.0739 µM | TGI (MCF7 breast): > 100 µM | TGI (NCI-H23 lung): 0.163 µM

O=c1cc(-c2ccccc2)oc2cc(OCc3cn(Cc4ccc(F)cc4)nn3)cc(OCc3cn(Cc4ccc(F)cc4)nn3)c12
GI50 (SK-MEL-2 melanoma): 4.49 µM | TGI (SK-MEL-2 melanoma): 33.1 µM | GI50 (HOP-92 NSCLC): 1.89 µM | TGI (HOP-92 NSCLC): 5.52 µM | GI50 (SNB-75 CNS): 1.69 µM | TGI (SNB-75 CNS): 4.85 µM | GI50 (MOLT-4 leukemia): > 100 µM | TGI (MOLT-4 leukemia): > 100 µM | GI50 (K-562 leukemia): > 100 µM | TGI (K-562 leukemia): > 100 µM | GI50 (SNB-19 CNS): 4.55 µM | TGI (SNB-19 CNS): > 100 µM | GI50 (HCT-116 colon): 3.52 µM | TGI (HCT-116 colon): > 100 µM | GI50 (HS 578T breast): 3.28 µM | TGI (HS 578T breast): > 100 µM | GI50 (HL-60(TB) leukemia): > 100 µM | TGI (HL-60(TB) leukemia): > 100 µM | GI50 (HCC-2998 colon): > 100 µM | TGI (HCC-2998 colon): > 100 µM | GI50 (NCI-H522 lung): 3.66 µM | TGI (NCI-H522 lung): > 100 µM | GI50 (CCRF-CEM leukemia): > 100 µM | TGI (CCRF-CEM leukemia): > 100 µM | GI50 (NCI/ADR-RES ovarian): > 100 µM | TGI (NCI/ADR-RES ovarian): > 100 µM | GI50 (IGROV1 ovarian): 4.45 µM | TGI (IGROV1 ovarian): > 100 µM | GI50 (SF-268 CNS): 3.52 µM | TGI (SF-268 CNS): > 100 µM | GI50 (NCI-H23 lung): 3.7 µM | TGI (NCI-H23 lung): > 100 µM | GI50 (RXF 393 renal): 1.78 µM | TGI (RXF 393 renal): 4.5 µM
